# Like-named read-outs stand apart in the source and are kept apart here.
# Tests used:
# Format in all cases: cell-based, human
# HTT mRNA = assay: RT-qPCR splicing assay, HTT canonical junction (CJ) and alternative junction (AJ) mRNA; settings: Homo sapiens; for AC50: increase in HTT alternative junction (AJ) mRNA, read-out: HTT AJ AC50
# Experimental: (§1) The expression of a target mRNA was measured by detecting the formation of an exon-exon junction in the canonical transcript (CJ). A compound mediated exon-inclusion event was detected by observing an increase in formation of a new junction with an alternative exon (AJ). Real-time qPCR assays were used to detect these splicing switches and interrogate the potency of various compounds towards different target genes. A high-throughput real time quantitative PCR (RT-qPCR) assay was developed to measure these two isoforms of the mRNA (CJ and AJ) for exemplary genes, such as HTT, SMN2, and MYB, together with a control housekeeping gene, GAPDH or GUSB or PPIA, used for normalization. Briefly, the A673 or K562 cell line was treated with various compounds described herein (e.g., compounds of Formula (I)). After treatment, the levels of the HTT, MYB, or SMN2 mRNA targets were determined from each sample of cell lysate by cDNA synthesis followed by qPCR.
# (§2) • Cells-to-CT 1-step kit: ThermoFisher A25602, Cells-to-CT lysis reagent: ThermoFisher 4391851C, TaqMan™ Fast Virus 1-Step Master Mix: ThermoFisher 4444436 • GAPDH: VIC-PL, ThermoFisher 4326317E (Assay: Hs99999905_m1)—used for K562/suspension cell lines • GUSB: VIC-PL, ThermoFisher 4326320E (Assay: Hs99999908_m1)—used for K562/suspension cell lines • PPIA: VIC-PL, ThermoFisher 4326316E (Assay: Hs99999904_m1)—used for A673/adherent cell lines
# (§3) The A673 cell line was cultured in DMEM with 10% FBS. Cells were diluted with full growth media and plated in a 96-well plate (15,000 cells in 100 ul media per well). The plate was incubated at 37° C. with 5% CO2 for 24 hours to allow cells to adhere. An 11-point 3-fold serial dilution of the compounds was made in DMSO then diluted in media in an intermediate plate. Compounds were transferred from the intermediate plate to the cell plate with the top dose at a final concentration of 10 uM in the well. Final DMSO concentration was kept at or below 0.25%. The cell plate was returned to the incubator at 37° C. with 5% CO2 for an additional 24 hours.
# (§4) The K562 cell line was cultured in IMDM with 10% FBS. For K562, cells were diluted with full growth media and plated in either a 96-well plate (50,000 cells in 50 uL media per well) or a 384-well plate (8,000-40,000 cells in 45 uL media per well). An 11-point 3-fold serial dilution of the compounds were made in DMSO then diluted in media in an intermediate plate. Compound was transferred from the intermediate plate to the cell plate with the top dose at a final concentration of 10 uM in the well. Final DMSO concentration was kept at or below 0.25%. Final volume was 100 uL for 96-well plate and 50 uL for 384-well plate. The cell plate was then placed in an incubator at 37° C. with 5% CO2 for 24 hours.
# (§5) The cells were then gently washed with 50 uL-100 uL cold PBS before proceeding to addition of lysis buffer. 30 uL-50 uL of room temperature lysis buffer with DNAse I (and optionally RNAsin) was added to each well. Cells were shaken/mixed thoroughly at room temperature for 5-10 minutes for lysis to take place and then 3 uL-5 uL of room temperature stop solution was added and wells were shaken/mixed again. After 2-5 minutes, the cell lysate plate was transferred to ice for RT-qPCR reaction setup. The lysates could also be frozen at −80° C. for later use.
# (§6) In some cases, a direct lysis buffer was used. An appropriate volume of 3× lysis buffer (10 mM Tris, 150 mM NaCl, 1.5%-2.5% Igepal and 0.1-1 U/uL RNAsin, pH 7.4) was directly added to either K562 or A673 cells in media and mixed by pipetting 3 times. The plates were then incubated at room temperature with shaking/rocking for 20-50 minutes to allow for lysis to take place. After this time, the cell lysate plate was transferred to ice to set up for the RT-qPCR reactions. The lysates could also be frozen at −80° C. for later use.
# SMN2 mRNA = assay: RT-qPCR splicing assay, SMN2 canonical junction (CJ) mRNA; settings: Homo sapiens; Table 5 panel; canonical junction qPCR; compound concentration having 50% response in CJ decrease; read-out: SMN2 IC50 (decrease in CJ mRNA levels)
# Experimental: as §1, §3, §4, §5, §6
# (§7) To set up 10 uL RT-qPCR reactions, cell lysates were transferred to 384-well qPCR plates containing the master mix according to the table below. The plates were sealed, gently vortexed, and spun down before the run. The volumes were adjusted accordingly in some instances where the reaction was carried in 20 uL. The table below summarizes the components of the RT-qPCR reactions:
# (§8) The RT-qPCR reaction was performed using a QuantStudio (ThermoFisher) under the following fast cycling conditions.
# MYB mRNA = assay: RT-qPCR splicing assay, MYB canonical junction (CJ) and alternative junction (AJ) mRNA; settings: Homo sapiens; for AC50: increase in MYB alternative junction (AJ) mRNA, read-out: MYB AJ AC50
# Experimental: as §1, §2, §3, §4, §5, §6
# Target C = assay: RT-qPCR splicing assay panel, Target C canonical junction (CJ) mRNA; settings: Homo sapiens; Table 5 panel; canonical junction qPCR; compound concentration having 50% response in CJ decrease; read-out: Target C IC50 (decrease in CJ mRNA levels)
# Experimental: as §1, §3, §4, §5, §6, §7, §8
# [1] = decrease in HTT canonical junction (CJ) mRNA, RT-qPCR, read-out: HTT CJ IC50
# [2] = Table 5 panel, canonical junction qPCR, compound concentration having 50% response in CJ decrease, read-out: HTT IC50 (decrease in CJ mRNA levels)
# [3] = Table 5 panel, canonical junction qPCR, compound concentration having 50% response in CJ decrease, read-out: MYB IC50 (decrease in CJ mRNA levels)
# [4] = decrease in MYB canonical junction (CJ) mRNA, RT-qPCR, read-out: MYB CJ IC50
smiles,measurement,setting,value
Cc1cn2cc(-c3ccc4c(=O)n(C5CCNC(C)C5)cnc4c3)cc(F)c2n1 (stereo not drawn) [Compound 323],IC50,HTT mRNA; [1],0.1 to 1 µM
same,AC50,HTT mRNA; RT-qPCR,0.1 to 1 µM
same,IC50,HTT mRNA; [2],0.1 to 1 µM
same,IC50,SMN2 mRNA,< 0.1 µM
same,IC50,MYB mRNA; [3],0.1 to 1 µM
same,IC50,MYB mRNA; [4],0.1 to 1 µM
same,AC50,MYB mRNA; RT-qPCR,0.1 to 1 µM
same,IC50,Target C,0.1 to 1 µM
Cc1cn2cc(-c3nc4ccc(N5CCN(C)CC5)cc4c(=O)[nH]3)cc(F)c2n1 [Compound 111],IC50,HTT mRNA; [1],1 to 10 µM
same,AC50,HTT mRNA; RT-qPCR,1 to 10 µM
same,IC50,HTT mRNA; [2],1 to 10 µM
same,IC50,SMN2 mRNA,0.1 to 1 µM
same,IC50,MYB mRNA; [3],1 to 10 µM
same,IC50,MYB mRNA; [4],1 to 10 µM
same,AC50,MYB mRNA; RT-qPCR,1 to 10 µM
same,IC50,Target C,1 to 10 µM
Cc1cn2cc(-c3ccc4nc(NC5CCNCC5)[nH]c(=O)c4c3)cc(F)c2n1 [Compound 238],IC50,HTT mRNA; [1],> 10 µM
same,AC50,HTT mRNA; RT-qPCR,> 10 µM
same,IC50,HTT mRNA; [2],> 10 µM
same,IC50,SMN2 mRNA,> 10 µM
same,IC50,MYB mRNA; [3],> 10 µM
same,IC50,MYB mRNA; [4],> 10 µM
same,AC50,MYB mRNA; RT-qPCR,> 10 µM
same,IC50,Target C,> 10 µM
Cc1cn2cc(-c3nc4ccc(N5CCNCC5)cc4c(=O)[nH]3)cc(F)c2n1 [Compound 115],IC50,HTT mRNA; [1],> 10 µM
same,AC50,HTT mRNA; RT-qPCR,> 10 µM
same,IC50,HTT mRNA; [2],> 10 µM
same,IC50,SMN2 mRNA,< 0.1 µM
same,IC50,MYB mRNA; [3],1 to 10 µM
same,IC50,MYB mRNA; [4],0.1 to 1 µM
same,AC50,MYB mRNA; RT-qPCR,1 to 10 µM
same,IC50,Target C,> 10 µM
Cc1cc(-c2nc3ccc(N(C)C4CCN(C)CC4)cc3c(=O)[nH]2)cc2cn(C)nc12 [Compound 239],IC50,HTT mRNA; [1],> 10 µM
same,AC50,HTT mRNA; RT-qPCR,> 10 µM
same,IC50,HTT mRNA; [2],> 10 µM
same,IC50,SMN2 mRNA,1 to 10 µM
same,IC50,MYB mRNA; [3],> 10 µM
same,IC50,MYB mRNA; [4],1 to 10 µM
same,AC50,MYB mRNA; RT-qPCR,> 10 µM
same,IC50,Target C,> 10 µM
Cc1cc(-c2ccc3nc(N4CCNCC4)[nH]c(=O)c3c2)cc2cn(C)nc12 [Compound 166],IC50,HTT mRNA; [1],1 to 10 µM
same,AC50,HTT mRNA; RT-qPCR,1 to 10 µM
same,IC50,HTT mRNA; [2],1 to 10 µM
same,IC50,SMN2 mRNA,1 to 10 µM
same,IC50,MYB mRNA; [3],1 to 10 µM
same,IC50,MYB mRNA; [4],1 to 10 µM
same,AC50,MYB mRNA; RT-qPCR,1 to 10 µM
same,IC50,Target C,1 to 10 µM
Cc1cn2cc(-c3ccc4nc(N5CCNC6(CC6)C5)[nH]c(=O)c4c3)cc(F)c2n1 [Compound 191],IC50,HTT mRNA; [1],> 10 µM
same,AC50,HTT mRNA; RT-qPCR,> 10 µM
same,IC50,HTT mRNA; [2],> 10 µM
same,IC50,SMN2 mRNA,> 10 µM
same,IC50,MYB mRNA; [3],> 10 µM
same,IC50,MYB mRNA; [4],> 10 µM
same,AC50,MYB mRNA; RT-qPCR,> 10 µM
same,IC50,Target C,> 10 µM
"Cc1cc(-c2nc3ccc(N(C)C4CCNCC4)cc3c(=O)[nH]2)cc2cn(C)nc12 [Compound 121, 2-(2,7-dimethyl-2H-indazol-5-yl)-6-(methyl(piperidin-4-yl)amino)quinazolin-4(3H)-one]",IC50,HTT mRNA; [1],> 10 µM
same,AC50,HTT mRNA; RT-qPCR,> 10 µM
same,IC50,HTT mRNA; [2],1 to 10 µM
same,IC50,SMN2 mRNA,0.1 to 1 µM
same,IC50,MYB mRNA; [3],> 10 µM
same,IC50,MYB mRNA; [4],1 to 10 µM
same,AC50,MYB mRNA; RT-qPCR,> 10 µM
same,IC50,Target C,> 10 µM
Cc1cn2nc(-c3cc(F)c4c(=O)n(C56CCC(N)(CC5)C6)ccc4c3)cc(C)c2n1 [Compound 655],IC50,HTT mRNA; [1],1 to 10 µM
same,AC50,HTT mRNA; RT-qPCR,0.1 to 1 µM
same,IC50,HTT mRNA; [2],0.1 to 1 µM
same,IC50,SMN2 mRNA,< 0.1 µM
same,IC50,MYB mRNA; [3],< 0.1 µM
same,IC50,MYB mRNA; [4],0.1 to 1 µM
same,AC50,MYB mRNA; RT-qPCR,< 0.1 µM
same,IC50,Target C,1 to 10 µM
